US9447106B2, “Substituted pyrazolo[1,5-a]pyrimidines as bruton's tyrosine kinase modulators” (Beigene, Ltd., priority 2013, dated 2016)
Counter-ions that a name gives are not always drawn. Like-named read-outs stand apart in the source and are kept apart here.

Legend:
[1] = target: phosphorylated Btk at Tyr223 in Ramos cells (Homo sapiens (Human), UniProt Q06187); test: Btk pY223 cellular assay (HTRF) in Ramos cells; assay type: cell-based; conditions: 1 hour compound incubation, pervanadate or Na3VO4 stimulation
Chain of phosphorylated Btk at Tyr223 in Ramos cells (Q06187 whole entry): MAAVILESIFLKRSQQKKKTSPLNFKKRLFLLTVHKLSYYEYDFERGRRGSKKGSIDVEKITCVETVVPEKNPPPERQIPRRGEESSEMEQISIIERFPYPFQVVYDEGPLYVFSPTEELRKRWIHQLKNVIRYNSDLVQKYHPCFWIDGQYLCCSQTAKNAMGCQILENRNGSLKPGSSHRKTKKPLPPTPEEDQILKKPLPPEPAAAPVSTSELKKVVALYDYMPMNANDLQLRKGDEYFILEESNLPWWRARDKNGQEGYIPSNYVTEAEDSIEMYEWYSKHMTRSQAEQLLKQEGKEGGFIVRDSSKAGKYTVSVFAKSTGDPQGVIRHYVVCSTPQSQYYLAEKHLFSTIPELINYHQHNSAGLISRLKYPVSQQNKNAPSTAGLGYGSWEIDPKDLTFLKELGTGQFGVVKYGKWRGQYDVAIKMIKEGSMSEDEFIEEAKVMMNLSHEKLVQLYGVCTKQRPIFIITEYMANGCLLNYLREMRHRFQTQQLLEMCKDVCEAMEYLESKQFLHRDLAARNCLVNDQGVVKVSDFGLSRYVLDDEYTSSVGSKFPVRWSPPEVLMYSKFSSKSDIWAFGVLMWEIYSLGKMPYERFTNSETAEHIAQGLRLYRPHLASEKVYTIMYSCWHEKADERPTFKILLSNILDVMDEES
Description: Btk pY223 cellular assay is a HTRF based assay intended to determine the endogenous levels of phosphorylated Btk at Tyr223.
Briefly, Ramos cells were serum starved in 0.5% FBS-containing RPMI1640 for 2 hours. Following starvation, the cells were incubated with compounds to be detected at various concentrations in a CO2 incubator for 1 hour. After incubation, cells were stimulated with 1 mM pervanadate (PV) or Na3VO4 (OV) for 20 min. Then, the cells were spinned down and lysed with 1× lysis buffer at RT for 10 min (4× lysis buffer supplied in the kit). During the incubation, 1× antibody mix was prepared by diluting anti-Btk-d2 and anti-pBtk-K in detection buffer (supplied in the kit). […] After that, 18 ul of cell lysate was transferred to the assay plate pre-loaded with antibody solution. After mixing gently and spinning briefly, the plate was sealed up and kept in dark at RT for 18 hours. […] IC50 values were calculated with GraphPad Prism software using the sigmoidal dose-response function.

Recombinant Btk = Recombinant Btk (Homo sapiens (Human), UniProt Q06187); test: Btk kinase assay (TR-FRET)
Chain of Recombinant Btk (Q06187 whole entry): as above

[2] = read-out: IC50 (nM) Btk, recombinant Btk, 1 hour pre-incubation, ATP at Km

## CN(C)C/C=C/C(=O)N1CCC(C2CCNc3c(C(N)=O)c(-c4ccc(Oc5ccccc5)cc4)nn32)CC1 (single isomer, unassigned) [Compound 171, (R or S) (E)-7-(1-(4-(Dimethylamino)but-2-enoyl)piperidin-4-yl)-2-(4-phenoxyphenyl)-4,5,6,7-tetrahydropyrazolo-[1,5-a]pyrimidine-3-carboxamide]
[1]
  IC50: 10.9 nM
Recombinant Btk
  IC50: 1.4 nM

## C=CC(=O)Nc1ccc2c(c1)CCNc1c(C(N)=O)c(-c3ccc(Oc4ccccc4)cc3)nn1-2 [Compound 72, 8-Acrylamido-2-(4-phenoxyphenyl)-5,6-dihydro-4H-benzo[f]pyrazolo[1,5-a][1,3]diazepine-3-carboxamide]
[1]
  IC50: 10.5 nM
Recombinant Btk; IC50 (nM) Btk, recombinant Btk, 1 hour pre-incubation, ATP at Km
  IC50: 4.1 nM

## C=CC(=O)Nc1ccccc1C1CCNc2c(C(N)=O)c(-c3ccc(OCc4ccccc4)cc3)nn21 (stereo not shown) [Compound 10, 7-(2-Acrylamidophenyl)-2-(4-(benzyloxy)phenyl)-4,5,6,7-tetrahydro pyrazolo[1,5-a]pyrimidine-3-carboxamide]
[1]
  IC50: 8 nM
Recombinant Btk; [2]
  IC50: 1.5 nM

## CN(C)C/C=C/C(=O)N1CCc2[nH]c3c(C(N)=O)c(-c4ccc(Oc5ccccc5)cc4)nn3c2CC1 [Compound 122, (E)-7-(4-(dimethylamino)but-2-enoyl)-2-(4-phenoxyphenyl)-4,5,6,7,8,9-hexahydropyrazolo-[1′,5′:1,2]-imidazo[4,5-d]azepine-3-carboxamide]
[1]
  IC50: 12.6 nM

## C=CC(=O)Nc1ccccc1C1CCNc2c(C(N)=O)c(-c3ccc(F)c(Cl)c3)nn21 (stereo not shown) [Compound 196, 7-(2-Acrylamidophenyl)-2-(3-chloro-4-fluorophenyl)-4,5,6,7-tetrahydropyrazolo-[1,5-a]pyrimidine-3-carboxamide]
[1]
  IC50: 2 nM

## C=CC(=O)Nc1ccccc1C1CCNc2c(C(N)=O)c(-c3ccc(Cl)c(Cl)c3)nn21 (stereo not shown) [Compound 156, 7-(2-Acrylamidophenyl)-2-(3,4-dichlorophenyl)-4,5,6,7-tetrahydropyrazolo-[1,5-a]pyrimidine-3-carboxamide]
[1]
  IC50: 6.8 nM

## C=CC(=O)Nc1ccc2c(c1)CC(=O)Nc1c(C(N)=O)c(-c3ccc(Oc4ccccc4)cc3)nn1-2 [Compound 75, 8-Acrylamido-5-oxo-2-(4-phenoxyphenyl)-5,6-dihydro-4H-benzo[f]pyrazolo[1,5-a][1,3]diazepine-3-carboxamide]
[1]
  IC50: 223 nM

## C=CC(=O)Nc1ccccc1C1CCNc2c(C(N)=O)c(-c3ccc(Cl)c(F)c3)nn21 (stereo not shown) [Compound 154, 7-(2-Acrylamidophenyl)-2-(4-chloro-3-fluorophenyl)-4,5,6,7-tetrahydropyrazolo[1,5-a]pyrimidine-3-carboxamide]
[1]
  IC50: 1.5 nM

## C=CC(=O)N1CC(C2CCNc3c(C(N)=O)c(-c4ccc(Oc5ccc(Cl)cc5)cc4)nn32)C1 (stereo not shown) [Compound 106, 7-(1-acryloylazetidin-3-yl)-2-(4-(4-chlorophenoxy)-phenyl)-4,5,6,7-tetrahydropyrazolo[1,5-a]pyrimidine-3-carboxamide]
[1]
  IC50: 30.3 nM

## C=CC(=O)N(C)CC1CCNc2c(C(N)=O)c(-c3ccc(Oc4ccccc4)cc3)nn21 (stereo not shown) [Compound 35]
[1]
  IC50: 7.9 nM

## NC(=O)c1c(-c2ccc(Oc3ccccc3)cc2)nn2c1NCCC2C1CCN(C(=O)/C=C/CN2CCCCC2)CC1 (stereo not shown) [Compound 170, (E)-2-(4-Phenoxyphenyl)-7-(1-(4-(piperidin-1-yl)but-2-enoyl)piperidin-4-yl)-4,5,6,7-tetrahydropyrazolo[1,5-a]pyrimidine-3-carboxamide]
[1]
  IC50: 33.7 nM

## NC(=O)c1c(-c2ccc(Oc3ccccc3)cc2)nn2c1NCC[C@H]2C1CCN(C(=O)/C=C/CN2CCN(CCNC(=O)CCCC(=O)NCCCOCCOCCOCCCNC(=O)CCCC[C@H]3SC[C@H]4NC(=O)N[C@H]43)CC2)CC1 [Compound 178, N1-(2-(4-((E)-4-(4-((S)-3-carbamoyl-2-(4-phenoxyphenyl)-4,5,6,7-tetrahydropyrazolo[1,5-a]pyrimidin-7-yl)piperidin-1-yl)-4-oxobut-2-en-1-yl)piperazin-1-yl)ethyl)-N5-(15-oxo-19-((3aR,4R,6aS)-2-oxohexahydro-1H-thieno[3,4-d]imidazol-4-yl)-4,7,10-trioxa-14-azanonadecyl)glutaramide trifluoroacetate]
[1]
  IC50: > 1000 nM
Recombinant Btk
  IC50: 46 nM

## C=CC(=O)N1CC[C@H]2[C@H](CNc3c(C(N)=O)c(-c4ccc(Oc5ccccc5)cc4)nn32)C1 (relative stereo) [Compound 30, Cis-7-Acryloyl-2-(4-phenoxyphenyl)-4,5,5a,6,7,8,9,9a-octahydro pyrazolo[1,5-a]pyrido[3,4-e]pyrimidine-3-carboxamide and Cis-7-acryloyl-2-(4-phenoxyphenyl)-4,4a,5,6,7,8,8a,9-octahydropyrazolo[1,5-a]pyrido[4,3-d]pyrimidine-3-carboxamide]
[1]
  IC50: 4 nM
Recombinant Btk
  IC50: 1 nM

## C=CC(=O)N1CC(C2CCNc3c(C(N)=O)c(-c4ccc(Oc5ccccc5C#N)cc4)nn32)C1 (stereo not shown) [Compound 135, 7-(1-acryloylazetidin-3-yl)-2-(4-(2-cyanophenoxy)phenyl)-4,5,6,7-tetrahydropyrazolo[1,5-a]pyrimidine-3-carboxamide]
[1]
  IC50: 2.4 nM

## NC(=O)c1c(-c2ccc(Oc3ccccc3)cc2)nn2c1NCC[C@H]2C1CCN(C(=O)CCCl)CC1 [Compound 177, (S)-7-(1-(3-chloropropanoyl)piperidin-4-yl)-2-(4-phenoxy-phenyl)-4,5,6,7-tetrahydropyrazolo-[1,5-a]pyrimidine-3-carboxamide]
[1]
  IC50: 3.9 nM

## C=CC(=O)N1CCC(C2(C)CCNc3c(C(N)=O)c(-c4ccc(Oc5ccccc5)cc4)nn32)CC1 (stereo not shown) [Compound 138, 7-(1-acryloylpiperidin-4-yl)-7-methyl-2-(4-phenoxyphenyl)-4,5,6,7-tetrahydropyrazolo[1,5-a]pyrimidine-3-carboxamide]
[1]
  IC50: 7.6 nM

## C=CC(=O)N1CC[C@H]2Nc3c(C(N)=O)c(-c4ccc(Oc5ccccc5)cc4)nn3C[C@H]2C1 [Compound 31]
Recombinant Btk; [2]
  IC50: 15 nM
